In patent US12384769B2, “Heteroaryl-substituted aminoalkyl azole compounds as pesticides” (Elanco Animal Health GmbH, priority 2019, dated 2025):

Experiments:
Assay type in all cases: in vivo
Diabrotica balteata = Diabrotica balteata spray test; details: 168 h, wheat seeds, after 7 days, read-out: activity (efficacy, seedlings grown); for pest or weed control at 160 µg/disc, 500 g/ha: 500 g/ha (=160 μg/well)
Procedure, shortened: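 Germinated wheat seedlings (5 per well, on agar) sprayed with compound in acetone/DMF with emulsifier-containing water, then infested with 10–20 Diabrotica balteata larvae. Efficacy (%) scored after 7 days from seedling growth: 100% = growth as untreated uninfested control, 0% = no seedlings grown.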

Boophilus microplus = Boophilus microplus injection test (BOOPMI Injection); details: Rhipicephalus microplus, 168 h, injection into adult engorged female ticks, egg deposition after 7 days, read-out: activity (efficacy, infertile eggs); for pest or weed control at 0.004 mg: 4 μg/animal; for pest or weed control at 0.02 mg: 20 μg/animal
Procedure, shortened: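 Adult engorged female ticks (5 per group) injected into the abdomen with 1 μL compound in DMSO, then held in a climate chamber. Fertile egg deposition scored after 7 days, with unclear eggs kept until hatching (~42 days). Efficacy 100% = all eggs infertile, 0% = all fertile.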

Spodoptera frugiperda = Spodoptera frugiperda spray test; details: in Zea mays, 168 h, read-out: activity (mortality)
Procedure, shortened: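 Compound in acetone/DMF, diluted in water with 1000 ppm alkylarylpolyglycol ether emulsifier, sprayed on maize leaf sections. Dried leaves infested with fall armyworm larvae; % mortality after 7 days (100% = all killed, 0% = none).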

Myzus persicae [1] = assay: Myzus persicae oral test; details: 120 h, after 5 days
Protocol: Solvent: 100 parts by weight acetone
Afterwards the plates are sealed with parafilm through which a mixed population of the green peach aphid (Myzus persicae) can suck on the compound preparation.
(§1) After 5 days mortality in % is determined. 100% means all aphids have been killed and 0% means none of the aphids have been killed.

Ctenocephalides felis [2] = assay: Ctenocephalides felis oral test (CTECFE); details: 48 h, 100 ppm in cattle blood, after 2 days
Procedure, shortened: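 About 20 adult unfed fleas fed through parafilm on cattle blood held at 37° C and dosed with compound from a DMSO concentrate; flea chamber at room temperature. Percent mortality scored after 2 days.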

[3] = test system: Anopheles funestus strain FUMOZ-R; assay: Anopheles funestus test (ANPHFU surface treatment & contact assay); details: 30 minutes exposure, 24 hours after contact, read-out: efficacy (mortality); for mortality at 20 mg/m2: surface concentration 20 mg/m^2, glazed tile
Protocol: Anopheles funestus Test (ANPHFU Surface Treatment & Contact Assay)
(§2) Solvent: Aceton+2000 ppm rapeseed oil methyl ester (RME)
(§3) In order to produce a sufficient, active ingredient containing solution it is necessary to solve the test compound in the solvent-mix (acetone at 2 mg/mL/RME 2000 ppm). This solution is pipetted onto a glazed tile and after evaporation of the acetone, adult mosquitoes of the species Anopheles funestus strain FUMOZ-R (Hunt et al., Med. Vet. Entomol. 2005 September; 19(3): 271-275) are placed onto the dried surface. The exposure time is 30 minutes.
(§4) Mortality in percent (%) is determined 24 hours after contact of the insects to the treated surface. 100% mortality means that all tested insects are dead, whereas 0% means that no insect died.

[4] = test system: Rhipicephalus microplus (strain Parkhurst, resistant against synthetic pyrethroids); assay: Rhipicephalus microplus in-vitro contact test, larval cattle tick (BOOPMI Contact); details: 5 μg/cm^2 (=500 g/ha), after 48 hours, read-out: activity (efficacy, larvae dead or moribund)
Procedure, shortened: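 Glass tubes coated with compound in acetone (900 ppm giving 5 μg/cm²), dried, then loaded with 20-50 pyrethroid-resistant Parkhurst larvae and held at 27 °C, 85% RH. After 48 h negative geotaxis is scored; efficacy in % dead or moribund larvae.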

Ctenocephalides felis [5] = assay: Ctenocephalides felis in-vitro contact test, adult cat flea; details: 5 μg/cm^2 (=500 g/ha), after 48 hours, read-out: activity (efficacy, fleas dead or moribund)
Procedure, shortened: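 Acetone solutions coated onto inner walls of glass tubes; 900 ppm gives 5 μg/cm^2. After drying, 5-10 adult Ctenocephalides felis per tube held 48 h at room temperature. Fleas then placed on 45-50° C. plate for up to 5 min; those unable to climb away scored dead or moribund, efficacy as % dead/moribund.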

[6] = test system: Culex quinquefasciatus strain P00; assay: Culex quinquefasciatus test (CULXFA surface treatment & contact assay); details: surface concentration 20 mg/m^2, glazed tile, 30 minutes exposure, 24 hours after contact, read-out: efficacy (mortality)
Protocol: Culex quinquefasciatus Test (CULXFA Surface Treatment & Contact Assay)
as §2
as §3, with “2 000” for “2000”, “Culex quinquefasciatus” for “Anopheles funestus”, “P00” for “FUMOZ-R (Hunt et al., Med. Vet. Entomol. 2005 September; 19(3): 271-275)”
as §4

[7] = test system: Aedes aegypti strain MONHEIM; assay: Aedes aegypti test (AEDSAE surface treatment & contact assay); details: 30 minutes exposure, 24 hours after contact, read-out: efficacy (mortality); for mortality at 20 mg/m2: surface concentration 20 mg/m^2, glazed tile
Protocol: Aedes aegypti Test (AEDSAE Surface Treatment & Contact Assay)
as §2
as §3, with “Aedes aegypti” for “Anopheles funestus”, “MONHEIM” for “FUMOZ-R (Hunt et al., Med. Vet. Entomol. 2005 September; 19(3): 271-275)”
as §4

Tetranychus urticae = Tetranychus urticae spray test OP-resistant; details: foliar, 144 h, French bean leaf disks, after 6 days
Protocol: Tetranychus urticae—Spray Test OP-Resistant
(§5) Solvent: 78.0 parts by weight acetone • 1.5 parts by weight dimethylformamide
(§6) Emulsifier: alkylarylpolyglycol ether
(§7) To produce a suitable preparation of active compound, 1 part by weight of active compound is mixed with the stated amount of solvents and is diluted with water, containing an emulsifier concentration of 1000 ppm, to the desired concentration. Further test concentrations are prepared by dilution with emulsifier containing water.
French bean (Phaseolus vulgaris) leaf disks infected with all instars of the two spotted spidermite (Tetranychus urticae) are sprayed with a preparation of the active ingredient of the desired concentration.
After 6 days mortality in % is determined. 100% means all spider mites have been killed and 0% means none of the spider mites have been killed.

Nezara viridula = Nezara viridula spray test; details: 96 h, barley plants, after 4 days
Protocol: Nezara viridula—Spray Test
Solvent: 78.0 parts by weight of acetone • • 1.5 parts by weight of dimethylformamide
as §6
as §7, with “solvent,” for “solvents”, “and the concentrate” for “and”
Barley plants (Hordeum vulgare) are sprayed with a test solution containing the desired concentration of the active ingredient and are infested with larvae of the southern green stink bug (Nezara viridula).
After 4 days, mortality in % is determined. 100% means all the stink bugs have been killed; 0% means none of the stink bugs have been killed.

[8] = test system: Musca domestica strain WHO-N; assay: Musca domestica test (MUSCDO surface treatment & contact assay); details: 30 minutes exposure, 24 hours after contact, read-out: efficacy (mortality)
Protocol: Musca domestica Test (MUSCDO Surface Treatment & Contact Assay)
as §2
as §3, with “flies” for “mosquitoes”, “Musca domestica” for “Anopheles funestus”, “WHO—N” for “FUMOZ-R (Hunt et al., Med. Vet. Entomol. 2005 September; 19(3): 271-275)”
as §4

Rhipicephalus sanguineus = Rhipicephalus sanguineus in-vitro contact test, adult brown dog ticks (RHIPSA Contact); details: 5 μg/cm^2 (=500 g/ha), after 48 hours, read-out: activity (efficacy, ticks dead or moribund)
Procedure, shortened: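 Acetone solution coated onto glass tube walls; 900 ppm gives 5 μg/cm^2. After drying, 5-10 adult ticks per tube kept at room temperature for 48 h, then placed on a 45-50° C heating plate up to 5 min; ticks unable to climb away counted dead or moribund, efficacy as % affected.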

Myzus persicae [9] = assay: Myzus persicae spray test; details: foliar, 120 h, Chinese cabbage leaf disks, after 5 days
Protocol: Myzus persicae—Spray Test
as §5, §6, §7
Chinese cabbage (Brassica pekinensis) leaf disks infected with all instars of the green peach aphid (Myzus persicae), are sprayed with a preparation of the active ingredient of the desired concentration.
as §1

Meloidogyne incognita = Meloidogyne incognita test; details: 20 ppm, after 14 days
Protocol: Meloidogyne incognita—Test
Solvent: 125.0 parts by weight of acetone
To produce a suitable preparation of active compound, 1 part by weight of active compound is mixed with the stated amount of solvent, and the concentrate is diluted with water to the desired concentration.
Vessels are filled with sand, a solution of the active ingredient, a suspension containing eggs and larvae of the southern root-knot nematode (Meloidogyne incognita) and salad seeds. The salad seeds germinate, and the seedlings grow. Galls develop in the roots.
After 14 days the nematicidal activity is determined based on the percentage of gall formation. 100% means no galls were found and 0% means the number of galls found on the roots of the treated plants was equal to that in untreated control plants.

[10] = surface concentration 4 mg/m^2, glazed tile

C[C@H](Nc1nc2cc(C(F)(F)F)cc(C(F)(F)F)c2o1)c1ncnn1-c1ncccn1 [Example I-005]
pest or weed control at 160 µg/disc, 500 g/ha (Diabrotica balteata): 100%
pest or weed control at 0.004 mg (Boophilus microplus): 100%
pest or weed control at 0.02 mg (Boophilus microplus): 100%
mortality at 100 g/ha (Spodoptera frugiperda): 100%
mortality at 500 g/ha (Spodoptera frugiperda): 100%
mortality at 4 ppm (Myzus persicae [1]): 90%
mortality at 100 ppm (Ctenocephalides felis [2]): 100%
mortality at 20 mg/m2 [3]: 90 to 100%
pest or weed control at 5 µg/cm2 [4]: 100%
pest or weed control at 5 µg/cm2, 5 µg/cm2 (Ctenocephalides felis [5]): 100%
mortality at 20 mg/m2 [6]: 90 to 100%
mortality at 20 mg/m2 [7]: 90 to 100%

C[C@H](Nc1nc2cc(Cl)c(Cl)cc2o1)c1ncnn1-c1ncccn1 [Example I-016]
pest or weed control at 100 g/ha (Diabrotica balteata): 100%
pest or weed control at 160 µg/disc, 500 g/ha (Diabrotica balteata): 100%
pest or weed control at 0.02 mg (Boophilus microplus): 100%
mortality at 500 g/ha (Tetranychus urticae): 90%
mortality at 500 g/ha (Spodoptera frugiperda): 100%
pest or weed control at 5 µg/cm2 [4]: 100%

C[C@H](Nc1nc2cc(C(F)(F)F)c(Cl)cc2o1)c1ncnn1-c1ccc(C#N)cn1 [Example I-017]
pest or weed control at 100 g/ha (Diabrotica balteata): 100%
pest or weed control at 160 µg/disc, 500 g/ha (Diabrotica balteata): 100%
pest or weed control at 0.004 mg (Boophilus microplus): 100%
pest or weed control at 0.02 mg (Boophilus microplus): 100%
mortality at 100 g/ha (Spodoptera frugiperda): 100%
mortality at 500 g/ha (Spodoptera frugiperda): 100%
mortality at 500 g/ha (Nezara viridula; 500 g/ha): 100%
mortality at 4 ppm (Myzus persicae [1]): 90%
mortality at 4 mg/m2 [3, 10]: 85 to 100%
mortality at 20 mg/m2 [3]: 90 to 100%
pest or weed control at 5 µg/cm2 [4]: 100%
pest or weed control at 5 µg/cm2, 5 µg/cm2 (Ctenocephalides felis [5]): 100%
mortality at 4 mg/m2 [8, 10]: 90 to 100%
mortality at 20 mg/m2 ([8]; surface concentration 20 mg/m^2, glazed tile): 90 to 100%
mortality at 4 mg/m2 [7, 10]: 85 to 100%
mortality at 20 mg/m2 [7]: 90 to 100%

C[C@H](Nc1nc2cc(C3CC3)cc(Cl)c2o1)c1ncnn1-c1ncccc1F [Example I-067, 7-Chlor-5-cyclopropyl-N-{(1S)-1-[1-(3-fluorpyridin-2-yl)-1H-1,2,4-triazol-5-yl]ethyl}-1,3-benzoxazol-2-amin]
pest or weed control at 160 µg/disc, 500 g/ha (Diabrotica balteata): 80%
pest or weed control at 0.004 mg (Boophilus microplus): 100%
pest or weed control at 0.02 mg (Boophilus microplus): 100%
mortality at 500 g/ha (Tetranychus urticae): 90%
pest or weed control at 5 µg/cm2, 5 µg/cm2 (Rhipicephalus sanguineus): 80%
mortality at 100 ppm (Ctenocephalides felis [2]): 80%

C[C@H](Nc1nc2cc(OC(F)(F)F)c(Cl)cc2o1)c1ncnn1-c1ncc(Br)cn1 [Example I-085, N-{(1S)-1-[1-(5-Brompyrimidin-2-yl)-1H-1,2,4-triazol-5-yl]ethyl}-6-chlor-5(trifluormethoxy)-1,3-benzoxazol-2-amin]
pest or weed control at 100 g/ha (Diabrotica balteata): 100%
mortality at 100 g/ha (Tetranychus urticae; 100 g/ha): 90%
mortality at 100 g/ha (Spodoptera frugiperda): 100%
mortality at 100 g/ha (Nezara viridula; 100 g/ha): 100%
pest or weed control at 5 µg/cm2, 5 µg/cm2 (Rhipicephalus sanguineus): 100%
pest or weed control at 5 µg/cm2 [4]: 100%
pest or weed control at 5 µg/cm2, 5 µg/cm2 (Ctenocephalides felis [5]): 100%
mortality at 100 g/ha (Myzus persicae [9]; 100 g/ha): 90%

C[C@H](Nc1nc2cc(Cl)cc(C(F)(F)F)c2o1)c1ncnn1-c1ccc(C(F)(F)F)cn1 [Example I-087, 5-Chlor-7-(trifluormethyl)-N-[(1S)-1-{1-[5-(trifluormethyl)pyridin-2-yl]-1H-1,2,4-triazol-5-yl}ethyl]-1,3-benzoxazol-2-amin]
activity (nematicidal activity, gall formation) (Meloidogyne incognita): 90%
pest or weed control at 5 µg/cm2 [4]: 100%

C[C@H](Nc1nc2cc(Cl)cc(C(F)(F)F)c2o1)c1ncnn1-c1ccc(C#N)cn1 [Example I-088, 6-{5-[(1S)-1-{[5-Chlor-7-(trifluormethyl)-1,3-benzoxazol-2-yl]amino}ethyl]-1H-1,2,4-triazol-1-yl}nicotinonitril]
pest or weed control at 160 µg/disc, 500 g/ha (Diabrotica balteata): 100%
mortality at 500 g/ha (Spodoptera frugiperda): 83%
activity (nematicidal activity, gall formation) (Meloidogyne incognita): 90%
pest or weed control at 5 µg/cm2 [4]: 100%

Cc1nc([C@H](C)Nc2nc3cc(Cl)cc(C(F)(F)F)c3o2)n(-c2ccc(C#N)cn2)n1 [Example I-091, 6-{5-[(1S)-1-{[5-Chlor-7-(trifluormethyl)-1,3-benzoxazol-2-yl]amino}ethyl]-3-methyl-1H-1,2,4-triazol-1-yl)nicotinonitril]
pest or weed control at 0.02 mg (Boophilus microplus): 100%
activity (nematicidal activity, gall formation) (Meloidogyne incognita): 90%
pest or weed control at 5 µg/cm2 [4]: 90%
mortality at 500 g/ha (Myzus persicae [9]; 500 g/ha): 90%
